Source: article PMC4119598 (Journal of natural products, 2013)

Key:
MtFabI = MtFabI (Mycobacterium tuberculosis, UniProt P9WGR1); assay: FabI enzyme inhibition assay MtFabI; assay type: biochemical, M. tuberculosis
P. berghei LS parasites = assay: Immunofluorescence analysis; assay type: cell-based, Plasmodium berghei; conditions: 10 μM, 48 h post-infection
[1] = tested on: fabp10a:DsRed2 zebrafish larvae; assay: In vivo hepatotoxicity in fabp10a:DsRed2 zebrafish larvae; design: species or system zebrafish (Brachydanio rerio); conditions: for liver phenotype (Figure 3): 6 dpf after 3 days of exposure at MTC (60.2 μM of 1, 15.5 μM of 2, 0.3 μM of 4)
BS of Plasmodium = conditions: read-out: BS IC50 (reported); cited from earlier work

Chain of MtFabI (P9WGR1 whole entry, looked up): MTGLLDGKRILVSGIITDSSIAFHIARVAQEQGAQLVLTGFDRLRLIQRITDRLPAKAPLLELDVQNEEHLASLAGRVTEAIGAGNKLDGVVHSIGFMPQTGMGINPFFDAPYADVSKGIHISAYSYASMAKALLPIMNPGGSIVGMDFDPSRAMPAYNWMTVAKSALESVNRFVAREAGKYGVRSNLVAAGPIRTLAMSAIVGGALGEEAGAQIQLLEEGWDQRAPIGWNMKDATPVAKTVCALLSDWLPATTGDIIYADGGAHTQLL

Row | SMILES | IC50 (MtFabI) | effect on size of LS parasites (IFA) (P. berghei LS parasites) | liver phenotype (Figure 3) [1] | hepatotoxicity in zebrafish larvae ([1]; highest concentrations tested, up to and including MTC) | IC50 (BS of Plasmodium)
1 | COc1cc(C)c(C(=O)Oc2cc(C)c(C(=O)O)c(O)c2)c(O)c1 [compound 1, evernic acid] | > 200 µM | no effect | reduced liver size | – | –
2 | COC(=O)/C(=C1/OC(=O)C(c2ccccc2)=C1O)c1ccccc1 [compound 2, vulpic acid] | > 200 µM | decrease in the size of parasites | enlarged liver | – | –
3 | COc1cc(C(=O)O)c2c(c1C)OC(=O)c1c(C)cc(O)c(C=O)c1O2 [compound 3, psoromic acid] | > 200 µM | no effect | – | – | –
4 | CC(=O)C1=C(O)C=C2Oc3c(C(C)=O)c(O)c(C)c(O)c3[C@@]2(C)C1=O [compound 4, (+)-usnic acid] | – | decrease in the size of parasites | liver with normal shape and size | no hepatotoxicity was observed | –
5 | COc1cc(NC(C)CCCN)c2ncccc2c1 (stereo not drawn) [primaquine] | – | – | – | – | 1.4 to 3.3 µM
